Measurements reported in ChEMBL document CHEMBL1201862, “PubChem BioAssay data set” (2004).
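Grown in 96-well plates, cells were treated for 48 hours with each compound at five concentrations. Insufficient inhibition: endpoint recorded as highest concentration tested. Here, GI50 denotes the concentration required for 50% inhibition of growth.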 Calls of active or inactive are those of the source. Cut-off read from the data, not from the text of the source: active = GI50 up to about 1.1 µM and inactive = higher.

How the values were obtained:
Assay in all cases: growth of human tumour cells (NCI), 48 h
IGROV-1 = tested on: IGROV-1
CCRF-CEM = tested on: CCRF-CEM
RXF 393 = tested on: RXF 393
HCC 2998 = tested on: HCC 2998
Malme-3M = tested on: Malme-3M
HCT-116 = tested on: HCT-116
DMS-114 = tested on: DMS-114
SK-OV-3 = tested on: SK-OV-3
SNB-78 = tested on: SNB-78
SK-MEL-5 = tested on: SK-MEL-5
A549 = tested on: A549
LXFL 529 = tested on: LXFL 529
KM12 = tested on: KM12
HOP-18 = tested on: HOP-18
SNB-19 = tested on: SNB-19
M19-MEL = tested on: M19-MEL
NCI-H226 = tested on: NCI-H226
SF-539 = tested on: SF-539
RPMI-8226 = tested on: RPMI-8226
NCI-H460 = tested on: NCI-H460
UACC-62 = tested on: UACC-62
COLO 205 = tested on: COLO 205
HT-29 = tested on: HT-29
KM-20L2 = tested on: KM-20L2
UACC-257 = tested on: UACC-257
OVCAR-8 = tested on: OVCAR-8
HCT-15 = tested on: HCT-15
CAKI-1 = tested on: CAKI-1
HOP-62 = tested on: HOP-62
SW-620 = tested on: SW-620
LOX IMVI = tested on: LOX IMVI
M14 = tested on: M14
NCI-H522 = tested on: NCI-H522
786-0 = tested on: 786-0
OVCAR-4 = tested on: OVCAR-4
ACHN = tested on: ACHN
SK-MEL-28 = tested on: SK-MEL-28
U-251 = tested on: U-251
DMS-273 = tested on: DMS-273
HL-60 = tested on: HL-60
SR = tested on: SR
MOLT-4 = tested on: MOLT-4
SF-268 = tested on: SF-268
UO-31 = tested on: UO-31
OVCAR-5 = tested on: OVCAR-5
OVCAR-3 = tested on: OVCAR-3
SNB-75 = tested on: SNB-75
HOP-92 = tested on: HOP-92
TK-10 = tested on: TK-10
DLD-1 = tested on: DLD-1
EKVX = tested on: EKVX
SN12C = tested on: SN12C
SF-295 = tested on: SF-295
A498 = tested on: A498
SK-MEL-2 = tested on: SK-MEL-2
K562 = tested on: K562
NCI-H23 = tested on: NCI-H23
XF498 = tested on: XF498
NCI/ADR-RES = tested on: NCI/ADR-RES
MCF7 = tested on: MCF7

Compound: O=C1CC2C=CC1C2CO (stereo unspecified)
- GI50 (IGROV-1): > 100 µM (inactive)
- GI50 (CCRF-CEM): > 100 µM (inactive)
- GI50 (RXF 393): > 100 µM (inactive)
- GI50 (HCC 2998): > 100 µM (inactive)
- GI50 (Malme-3M): > 100 µM (inactive)
- GI50 (HCT-116): > 100 µM (inactive)
- GI50 (DMS-114): > 100 µM (inactive)
- GI50 (SK-OV-3): > 100 µM (inactive)
- GI50 (SNB-78): > 100 µM (inactive)
- GI50 (SK-MEL-5): > 100 µM (inactive)
- GI50 (A549): > 100 µM (inactive)
- GI50 (LXFL 529): > 100 µM (inactive)
- GI50 (KM12): > 100 µM (inactive)
- GI50 (HOP-18): > 100 µM (inactive)
- GI50 (SNB-19): > 100 µM (inactive)
- GI50 (M19-MEL): > 100 µM (inactive)
- GI50 (NCI-H226): > 100 µM (inactive)
- GI50 (SF-539): > 100 µM (inactive)
- GI50 (RPMI-8226): > 100 µM (inactive)
- GI50 (NCI-H460): > 100 µM (inactive)
- GI50 (UACC-62): > 100 µM (inactive)
- GI50 (COLO 205): > 100 µM (inactive)
- GI50 (HT-29): > 100 µM (inactive)
- GI50 (KM-20L2): > 100 µM (inactive)
- GI50 (UACC-257): > 100 µM (inactive)
- GI50 (OVCAR-8): > 100 µM (inactive)
- GI50 (HCT-15): > 100 µM
- GI50 (CAKI-1): > 100 µM (inactive)
- GI50 (HOP-62): > 100 µM (inactive)
- GI50 (SW-620): > 100 µM (inactive)
- GI50 (LOX IMVI): > 100 µM (inactive)
- GI50 (M14): > 100 µM (inactive)
- GI50 (NCI-H522): > 100 µM (inactive)
- GI50 (786-0): > 100 µM (inactive)
- GI50 (OVCAR-4): > 100 µM (inactive)
- GI50 (ACHN): > 100 µM (inactive)
- GI50 (SK-MEL-28): > 100 µM (inactive)
- GI50 (U-251): > 100 µM (inactive)
- GI50 (DMS-273): > 100 µM (inactive)
- GI50 (HL-60): > 100 µM (inactive)
- GI50 (SR): > 100 µM (inactive)
- GI50 (MOLT-4): > 100 µM (inactive)
- GI50 (SF-268): > 100 µM (inactive)
- GI50 (UO-31): > 100 µM (inactive)
- GI50 (OVCAR-5): > 100 µM (inactive)
- GI50 (OVCAR-3): > 100 µM (inactive)
- GI50 (SNB-75): > 100 µM (inactive)
- GI50 (HOP-92): > 100 µM (inactive)
- GI50 (TK-10): > 100 µM (inactive)
- GI50 (DLD-1): > 100 µM (inactive)
- GI50 (EKVX): > 100 µM (inactive)
- GI50 (SN12C): > 100 µM (inactive)
- GI50 (SF-295): > 100 µM (inactive)
- GI50 (A498): > 100 µM (inactive)

Compound: Nc1ccccc1Sc1ccc(Cl)cc1
- GI50 (IGROV-1): 52 µM (inactive)
- GI50 (CCRF-CEM): 17.9 µM (inactive)
- GI50 (RXF 393): 13.5 µM (inactive)
- GI50 (HCC 2998): 28.1 µM (inactive)
- GI50 (Malme-3M): 26.1 µM (inactive)
- GI50 (HCT-116): 34.3 µM (inactive)
- GI50 (DMS-114): 21.2 µM (inactive)
- GI50 (SK-MEL-2): 27.9 µM (inactive)
- GI50 (SK-OV-3): 40.4 µM (inactive)
- GI50 (SNB-78): 17 µM (inactive)
- GI50 (SK-MEL-5): 17.8 µM (inactive)
- GI50 (A549): 37.2 µM (inactive)
- GI50 (K562): 27.8 µM (inactive)
- GI50 (LXFL 529): 38.2 µM (inactive)
- GI50 (KM12): 33.4 µM (inactive)
- GI50 (HOP-18): 43.2 µM (inactive)
- GI50 (M19-MEL): 23 µM (inactive)
- GI50 (NCI-H226): 4.86 µM (inactive)
- GI50 (SF-539): 35.4 µM (inactive)
- GI50 (RPMI-8226): 24.4 µM (inactive)
- GI50 (NCI-H460): 24.3 µM (inactive)
- GI50 (UACC-62): 30.3 µM (inactive)
- GI50 (COLO 205): 21.1 µM (inactive)
- GI50 (HT-29): 19.1 µM (inactive)
- GI50 (KM-20L2): 20.9 µM (inactive)
- GI50 (UACC-257): 23.2 µM (inactive)
- GI50 (OVCAR-8): 37.5 µM (inactive)
- GI50 (HCT-15): 28.1 µM
- GI50 (HOP-62): 31.4 µM (inactive)
- GI50 (SW-620): 37.1 µM (inactive)
- GI50 (LOX IMVI): 28.6 µM (inactive)
- GI50 (M14): 31.8 µM (inactive)
- GI50 (OVCAR-4): 30.8 µM (inactive)
- GI50 (ACHN): 27 µM (inactive)
- GI50 (SK-MEL-28): 28.9 µM (inactive)
- GI50 (U-251): 16.2 µM (inactive)
- GI50 (DMS-273): 26.1 µM (inactive)
- GI50 (HL-60): 18.7 µM (inactive)
- GI50 (SR): 21.2 µM (inactive)
- GI50 (NCI-H23): 26.2 µM (inactive)
- GI50 (MOLT-4): > 10 µM (inactive)
- GI50 (SF-268): 39.6 µM (inactive)
- GI50 (UO-31): 17.9 µM (inactive)
- GI50 (OVCAR-5): 29.9 µM (inactive)
- GI50 (OVCAR-3): 25.6 µM (inactive)
- GI50 (SNB-75): 18.1 µM (inactive)
- GI50 (HOP-92): 20 µM (inactive)
- GI50 (TK-10): 35.6 µM (inactive)
- GI50 (DLD-1): 34.6 µM (inactive)
- GI50 (EKVX): 30.1 µM (inactive)
- GI50 (SN12C): 23.2 µM (inactive)
- GI50 (SF-295): 27.9 µM (inactive)
- GI50 (A498): 54.2 µM (inactive)

Compound: COc1cc2c(oc(=O)c3cc(C)cc(OC)c32)c2c(C3OC(C)C(O)C(C)(O)C3O)ccc(O)c12 (stereo unspecified)
- GI50 (IGROV-1): 0.815 µM (active)
- GI50 (CCRF-CEM): 0.0955 µM (active)
- GI50 (RXF 393): 0.38 µM (active)
- GI50 (HCC 2998): 0.665 µM (active)
- GI50 (Malme-3M): 0.673 µM (active)
- GI50 (HCT-116): 0.216 µM (active)
- GI50 (DMS-114): 0.315 µM (active)
- GI50 (SK-MEL-2): 0.794 µM (active)
- GI50 (SK-OV-3): 1.18 µM (inactive)
- GI50 (SNB-78): 0.755 µM (active)
- GI50 (SK-MEL-5): 0.581 µM (active)
- GI50 (A549): 0.439 µM (active)
- GI50 (K562): 0.277 µM (active)
- GI50 (KM12): 0.771 µM (active)
- GI50 (HOP-18): 1.41 µM (inactive)
- GI50 (SNB-19): 0.562 µM (active)
- GI50 (M19-MEL): 0.706 µM (active)
- GI50 (NCI-H226): 0.376 µM (active)
- GI50 (SF-539): 0.466 µM (active)
- GI50 (RPMI-8226): 0.454 µM (active)
- GI50 (NCI-H460): 0.142 µM (active)
- GI50 (UACC-62): 0.414 µM (active)
- GI50 (COLO 205): 0.551 µM (active)
- GI50 (HT-29): 0.463 µM (active)
- GI50 (KM-20L2): 0.664 µM (active)
- GI50 (XF498): 0.37 µM (active)
- GI50 (UACC-257): 0.731 µM (active)
- GI50 (OVCAR-8): 0.256 µM (active)
- GI50 (HCT-15): 0.662 µM
- GI50 (CAKI-1): 0.432 µM (active)
- GI50 (HOP-62): 0.284 µM (active)
- GI50 (SW-620): 0.312 µM (active)
- GI50 (LOX IMVI): 0.32 µM (active)
- GI50 (NCI-H522): 0.389 µM (active)
- GI50 (OVCAR-4): 0.467 µM (active)
- GI50 (NCI/ADR-RES): 0.622 µM (active)
- GI50 (SK-MEL-28): 0.861 µM (active)
- GI50 (U-251): 0.335 µM (active)
- GI50 (DMS-273): 0.336 µM (active)
- GI50 (MCF7): 0.237 µM (active)
- GI50 (HL-60): 0.045 µM (active)
- GI50 (NCI-H23): 0.223 µM (active)
- GI50 (MOLT-4): 0.075 µM (active)
- GI50 (SF-268): 0.349 µM (active)
- GI50 (UO-31): 1.04 µM (active)
- GI50 (OVCAR-5): 0.681 µM (active)
- GI50 (OVCAR-3): 0.785 µM (active)
- GI50 (SNB-75): 0.571 µM (active)
- GI50 (HOP-92): 0.745 µM (active)
- GI50 (DLD-1): 0.845 µM (active)
- GI50 (EKVX): 0.776 µM (active)
- GI50 (SN12C): 0.402 µM (active)
- GI50 (SF-295): 0.358 µM (active)
- GI50 (A498): 0.465 µM (active)
